{"source": "paper PMC9935382", "about": "“Sorting nexin-dependent therapeutic targeting of oncogenic epidermal growth factor receptor” (Cancer Gene Therapy, 2022)", "key": {"PARP": {"test_system": "PARP", "test": "PARP cleavage in tumor lysates (immunoblot)", "format": "in vivo, mouse", "conditions": "tumor lysates at sacrifice; 10 μg/g IV 3X/week; vs cPTD4", "method": "Lysates were prepared as described, protein concentrations determined by BCA assay (Pierce) and resolved via standard SDS-PAGE [18]. Gels were transferred to either PVDF (Immobilon P or Immobilon FL) membrane and probed with the indicated antibodies and analyzed by either HRP-linked secondaries (Pierce) or IRDye secondaries (Li-Cor), followed by development in Dura Signal (Pierce) or IR (Licor).\nThe transgenic mouse line WAP-TGFα (The Jackson Laboratory; Tg(WapTgfa)215Bri) were back crossed to C57BL/6 J background (N8). WAP-TGFα heterozygous males were bred with C57BL/6 J females to generate study animals and offspring were genotyped using primers against the WAP-TGFα transgene. WAP-TGFα heterozygous females were housed continuously with C57Bl/6 J males to induce pregnancy, resulting in transgene expression. […] To ensure randomized treatment arms we added mice to alternating treatment arms as they developed tumors, starting with the control cPTD4 arm. When a second mouse from the same litter developed a tumor, that animal was added to the opposite arm from its litter mate. The researchers were not blinded to the treatment arms. […] Once entered, mice were weighed, tumors measured, and injections given intravenously at 10 μg/g body weight 3x/week for 4 weeks. […]"}, "[1]": {"test_system": "mammary tumors of WAP-TGFα transgenic mice", "test": "Tumor growth in WAP-TGFα transgenic mice", "format": "in vivo, mouse", "method": "Statistics for the animal model was performed by the University of Arizona Cancer Center Biostatistics and Bioinformatics Shared Resources (BBSR). The cube root of the observed tumor burden was applied to normalize the raw values. […] For all cell culture experiments error bars represent the standard error of the mean across 3 experimental replicates.\n(§1) The transgenic mouse line WAP-TGFα (The Jackson Laboratory; Tg(WapTgfa)215Bri) were back crossed to C57BL/6 J background (N8). WAP-TGFα heterozygous males were bred with C57BL/6 J females to generate study animals and offspring were genotyped using primers against the WAP-TGFα transgene. WAP-TGFα heterozygous females were housed continuously with C57Bl/6 J males to induce pregnancy, resulting in transgene expression. […] To ensure randomized treatment arms we added mice to alternating treatment arms as they developed tumors, starting with the control cPTD4 arm. When a second mouse from the same litter developed a tumor, that animal was added to the opposite arm from its litter mate. The researchers were not blinded to the treatment arms. […] Once entered, mice were weighed, tumors measured, and injections given intravenously at 10 μg/g body weight 3x/week for 4 weeks. […] Upon sacrifice, all tumors were collected and fixed in 10% formalin; a portion of each tumor was homogenized in tissue lysis buffer to form tissue protein lysates. Tissues were paraffin-embedded and sectioned by the Tissue Acquisition and Cell Molecular Analysis Shared Resource at the University of Arizona Cancer Center. The University of Arizona IACUC committee performs oversite of animal experimental protocols with coordination from a veterinarian in compliance with AAALAC.\nWhen tumors reached >100 mm^3, IV injections began at 3X/week, 10 μg/g body weight and tumors were measured 3X/week with calipers. Animals were injected for 4 weeks or until they reached maximal tumor burden, defined as a total tumor volume >2000 mm^3 or an individual tumor measuring >2 cm in diameter. […] The WAP-TGFα is a spontaneous model in which each tumor arises and progresses in a heterogeneous fashion. […] In this study, mice were sacrificed after 4 weeks of injections or once they reached tumor burden, represented by the Kaplin-Meyer graph (Fig. 2B).\nMice were bred continuously to induce transgene expression and palpated weekly for tumor formation. […] A Changes in tumor size from entry into study until end of study are shown for each individual tumor, (*) indicate tumors that entered the study at size greater than 500 mm^3, all other tumors entered the study at ~100 mm^3. B a Kaplan-Meier survival curve was generated showing when mice were sacrificed by either reaching tumor burden (2000 mm^3) or the end of the study (p = 0.0002). C Upon sacrifice tumors were harvested and fixed in 10% formalin and embedded in paraffin. FFPE blocks were sectioned at […] and stained with hematoxylin and eosin and imaged at 20x. D Protein lysates were generated from tumors upon the sacrifice and probed for the indicated proteins."}, "MDA-MB-231 cells": {"test_system": "MDA-MB-231 cells", "test": "MTT cell viability, MDA-MB-231", "format": "cell-based", "conditions": "3 days", "method": "(§2) 2 × 10^3 cells were plated per well in a 96 well plate and left to adhere overnight. The following day, drug treatments were started and continued for 3 days. To measure the viability of the remaining cell population, 10% 3-(4,5-dimethylthiazol-2-yl)-2,5-diphenyltetrazolium (MTT) in media was added and incubated for 2 hours and conversion of MTT to formazan at 540 nm using a biotech Synergy LX plate reader.\n(§3) A–G Cells were plated in a 96-well plate at 2000 cells per well. […] Cell viability was then measured with an MTT assay, viability of treated cells were compared with the vehicle control. H MDA-MB-468 cells were plated and incubated+/− IPTG for 2 days prior to drug treatment to induce expression of an EGFR-targeted shRNA."}, "[2]": {"target": "T1, EGFR kinase domain (residues 672–998) (Homo sapiens, UniProt P00533)", "T1 construct": "baculovirus insect cell expression system (residues 672–998 with N-terminal His-tag followed by TEV cleavage site); made in house; host or cells: Sf9 insect cells (Bac-to-Bac baculovirus, pFastBacHT)", "T1 sequence (P00533 696-1022)": "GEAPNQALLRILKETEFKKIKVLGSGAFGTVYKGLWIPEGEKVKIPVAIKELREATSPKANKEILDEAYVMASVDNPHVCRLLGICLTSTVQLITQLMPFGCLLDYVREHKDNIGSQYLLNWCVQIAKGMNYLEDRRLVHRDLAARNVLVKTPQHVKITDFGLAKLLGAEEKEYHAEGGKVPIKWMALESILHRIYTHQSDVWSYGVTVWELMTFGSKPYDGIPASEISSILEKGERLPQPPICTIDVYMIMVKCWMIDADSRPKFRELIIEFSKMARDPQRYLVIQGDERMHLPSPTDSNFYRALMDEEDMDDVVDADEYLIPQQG", "test": "Microscale thermophoresis (MST) binding to EGFRkin", "conditions": "direct binding, MST / BLI", "experimental": "Briefly pFastBacHT plasmid containing the cDNA of EGFR kinase domain with N-terminal His-tag was transformed into DH10Bac E. coli to generate bacmid DNA. P1 virus was generated by transfecting 2.0 mL of sf9 cells at 1.0 million cells/ml density with the purified bacmid DNA (200–3000 ng/μL). The P1 virus was harvested after 5–7 days following transfection. The P1 virus was diluted 100-fold into an sf9 cell culture at a density of 2.0 million cells/ml and cultured for 3 days. Supernatant containing the P2 virus was collected by centrifugation and diluted 40-fold into 1.0 L of sf9 cells at a density of 2.0 million cells/ml. After 2.5–3 days, cell pellets were harvested by centrifugation at 3500 x g at 4 °C for 20 min, and flash frozen in liquid nitrogen prior to storage at −80 °C.\nTo purify the EGFR kinase domain, Sf9 cell pellets (~10 g) was thawed on ice and homogenized with 2 passages on an EmulsiFlex-C5 (Avestin) in 50 mL of lysis buffer (50 mM Tris pH 7.5, 600 mM NaCl, 1 mM EDTA, 1 mM TCEP, protease inhibitors, DNAase, and 10% Glycerol). The lysate was centrifugated and supernatant was collected and loaded onto a 1.0 mL HisTrap FF column (GE) at a flow rate of 1.0 ml/min. Following loading, the column was washed with 20 column volumes of wash buffer (50 mM Tris pH 7.5, 600 mM NaCl, 20 mM Imidazole, 1 mM TCEP, and 10% Glycerol) and eluted with a linear gradient of elution buffers containing 20 and 300 mM imidazole. Fractions containing the EGFR kinase domain proteins were combined and concentrated to less than 1.0 mL. The concentrated proteins were loaded onto a Superdex 200 10/300 GL column (GE) equilibrated in buffer (20 mM Tris pH 7.5, 100 mM NaCl) for further purification. The purified proteins were concentrated, flash frozen in liquid nitrogen, and stored at −80 °C.\nMST experiments were carried out using a Monolith NT.115 pico instrument (NanoTemper Technologies, Munich Germany). […] Kd values were derived from the concentration-dependent changes in normalized fluorescence (Fnorm). Data were analyzed using NanoTemper MO. […]"}, "[3]": {"test": "Body weight and toxicity in WAP-TGFα mice", "format": "in vivo", "conditions": "10 μg/g IV 3X/week, up to 4 weeks", "excerpt": "as §1, with “The University of Arizona IACUC committee performs oversite of animal experimental protocols with coordination from a veterinarian in compliance with AAALAC.” left out\nWhen tumors reached >100 mm^3, IV injections began at 3X/week, 10 μg/g body weight and tumors were measured 3X/week with calipers. […]\nSupplementary Figure 2. […] B. Tumors were measured with calipers 3X/week. […]"}, "[4]": {"test": "Potential toxicity in C57Bl/6 J female mice", "format": "in vivo, mouse", "conditions": "5.0 or 10.0 μg/g body weight IV 3X/week, 2 weeks, cSNX1.3 vs cPTD4; data not shown"}, "MDA-MB-468 cells": {"test_system": "MDA-MB-468 cells", "format": "cell-based", "conditions": "3 days, MTT", "method": "as §2\nA Peptide sequence alignment of modified and stabilized peptides (−) indicates conserved residues, (/) indicates a deleted residue. Modified residues used for staples are (S)-2-(((9H-flouren-9-yl) methoxy) caronylamino)-2-methyl-hept-6-enoic acid and (R)-2-(((9H-flouren-9-yl) methoxy) caronylamino)-2-methyl-dec-9-enoic acid. PTD4 = Protein Transduction Domain. Ac = acetylation of […] and NH2 = amidation of […]. B MDA-MB-468 cells were treated with 10 μM of the indicated peptide for 3 days. Cell viability was measured using an MTT assay. Vehicle control represents 100%. C. A predicted peptide structure of SNX1.3 was generated using SWISSMODEL with negative (blue) and positive (red) residues highlighted.\nA–G Cells were plated in a 96-well plate at 2000 cells per well. […] Cell viability was then measured with an MTT assay, viability of treated cells were compared with the vehicle control. […]"}, "H1975 cells": {"test_system": "H1975 cells", "test": "MTT cell viability, H1975", "format": "cell-based", "conditions": "EGFR driver mutation T790M, 3 days", "method": "as §2, §3"}, "[5]": {"test_system": "EGFRkin / SNX1 BAR domain", "test": "Competitive binding assay, SNX BAR / EGFRkin", "design": "species or system human", "conditions": "2.5 μM peptide; data not shown"}}, "note": "“Also recorded” adds a separate entry of the source.", "data": [{"molecule": "CC[C@H](C)[C@H](NC(=O)[C@@H](NC(=O)[C@H](Cc1c[nH]cn1)NC(=O)[C@H](CC(N)=O)NC(=O)[C@H](CCCCN)NC(=O)[C@H](C)NC(=O)[C@H](CCCNC(=N)N)NC(=O)[C@H](C)NC(=O)[C@H](CCC(N)=O)NC(=O)[C@H](CCCNC(=N)N)NC(=O)[C@H](C)NC(=O)[C@H](C)NC(=O)[C@H](C)NC(=O)[C@H](CCCNC(=N)N)NC(=O)[C@H](C)NC(=O)[C@H](Cc1ccc(O)cc1)NC(C)=O)C(C)C)C(=O)N[C@@H](CCCCN)C(=O)N[C@@H](Cc1ccc(O)cc1)C(=O)N[C@@H](CC(C)C)C(=O)N[C@@H](CCC(=O)O)C(=O)N[C@H](C(=O)N[C@@H](CC(C)C)C(=O)N[C@@H](CC(C)C)C(=O)N[C@@H](Cc1ccc(O)cc1)C(=O)N[C@@H](CO)C(=O)N[C@@H](CCC(N)=O)C(=O)N[C@@H](CCC(N)=O)C(=O)N[C@@H](CCC(N)=O)C(=O)N[C@@H](CC(C)C)C(=O)N[C@@H](C)C(=O)N[C@@H](CCCCN)C(=O)N[C@@H](Cc1ccc(O)cc1)C(=O)N[C@@H](Cc1c[nH]c2ccccc12)C(=O)N[C@@H](CCC(=O)O)C(=O)N[C@@H](C)C(=O)N[C@@H](Cc1ccccc1)C(=O)N[C@@H](CC(C)C)C(N)=O)[C@@H](C)O", "note": "[cSNX1.3]", "values": [{"measurement": "PARP cleavage in remaining tumors", "setting": "PARP", "value": "increased PARP cleavage; also recorded: increase in cleaved PARP"}, {"measurement": "tumor response", "setting": "[1]; 10 μg/g IV 3X/week, up to 4 weeks", "value": "significant tumor regression; also recorded: significant reduction in tumor growth; also recorded: several tumors completely regress"}, {"measurement": "average tumor regression rate", "setting": "[1]; 10 μg/g IV 3X/week, up to 4 weeks, n = 11 tumors", "value": 4, "unit": "mm^3/day"}, {"measurement": "average tumor growth rate", "setting": "[1]; 10 μg/g body weight IV 3X/week, up to 4 weeks, cPTD4 n = 14 tumors, cSNX1.3 n = 11 tumors", "value": -4, "unit": "mm^3/day"}, {"measurement": "mice that reached tumor burden", "setting": "[1]; mice of total before end of the study, total tumor volume >2000 mm^3 or individual tumor >2 cm", "value": "1/6"}, {"measurement": "tumors fully regressed", "setting": "[1]; number of tumors, calipers and confirmed during necropsy, 10 μg/g IV 3X/week", "value": 3}, {"measurement": "tumors that demonstrated growth", "setting": "[1]; number or proportion of tumors at end of study, the 2 growing cSNX1.3 tumors entered at greater than 500 mm^3", "value": 2}, {"measurement": "tumors with no change in tumor volume", "setting": "[1]; tumors of total, first to last measurement, 10 μg/g IV 3X/week", "value": "2/11"}, {"measurement": "tumors regressed", "setting": "[1]; tumors of total, 10 μg/g IV 3X/week, up to 4 weeks", "value": "7/11"}, {"measurement": "sensitivity (cell viability)", "setting": "MDA-MB-231 cells", "value": "sensitive"}, {"measurement": "binding to the EGFR kinase domain", "setting": "[2]", "value": "directly bind the EGFR kinase domain"}, {"measurement": "observable toxicity", "setting": "[3]", "value": "without observable toxicity; also recorded: no observable toxicity; also recorded: lack of observable toxicity in normal tissues"}, {"measurement": "weight, behavior, or grooming", "setting": "[4]", "value": "No difference in weight, behavior, or grooming was observed"}, {"measurement": "inhibition of cell survival compared with Sapitinib", "setting": "MDA-MB-468 cells", "value": "more effective than Sapitinib"}, {"measurement": "effect on cell viability", "setting": "H1975 cells", "value": "minimal effect"}, {"measurement": "inhibition of SNX BAR binding to EGFRkin", "setting": "[5]", "value": "blocks SNX BAR binding to EGFRkin"}]}]}
